The target in assay [1] is T1, P2X purinoceptor 1 (Rattus norvegicus, UniProt P47824).
T1 sequence (P47824 whole entry): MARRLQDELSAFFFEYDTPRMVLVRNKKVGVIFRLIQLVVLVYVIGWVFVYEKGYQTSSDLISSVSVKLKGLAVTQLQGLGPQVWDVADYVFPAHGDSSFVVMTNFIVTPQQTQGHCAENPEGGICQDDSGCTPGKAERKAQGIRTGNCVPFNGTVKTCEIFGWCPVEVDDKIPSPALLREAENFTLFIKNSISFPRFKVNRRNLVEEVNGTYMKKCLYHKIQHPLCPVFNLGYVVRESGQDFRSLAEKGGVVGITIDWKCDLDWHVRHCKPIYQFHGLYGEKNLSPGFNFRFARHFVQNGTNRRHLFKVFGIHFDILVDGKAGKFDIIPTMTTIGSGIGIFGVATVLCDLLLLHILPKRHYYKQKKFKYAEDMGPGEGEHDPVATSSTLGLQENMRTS
Nature of the assay: Compound was tested in a functional ion channel assay of ATP-induced current at recombinant rat P2X1 receptor expressed in Xenopus oocytes. The assay is classed as cell-based, Oocyte.

Assay [2] concerns the target T2, P2X purinoceptor 3 (Rattus norvegicus, UniProt P49654).
T2 sequence (P49654 whole entry): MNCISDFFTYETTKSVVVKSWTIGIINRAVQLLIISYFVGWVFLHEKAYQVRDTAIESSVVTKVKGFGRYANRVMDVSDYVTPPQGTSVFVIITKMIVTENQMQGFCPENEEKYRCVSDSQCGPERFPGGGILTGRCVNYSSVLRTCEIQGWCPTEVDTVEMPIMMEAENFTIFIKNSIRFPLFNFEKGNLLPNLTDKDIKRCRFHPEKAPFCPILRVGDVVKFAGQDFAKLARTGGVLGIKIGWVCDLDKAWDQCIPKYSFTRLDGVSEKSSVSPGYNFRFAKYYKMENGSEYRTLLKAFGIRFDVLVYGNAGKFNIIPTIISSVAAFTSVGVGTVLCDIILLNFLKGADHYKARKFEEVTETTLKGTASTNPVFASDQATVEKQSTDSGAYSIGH
Briefly: Compound was tested in a functional ion channel assay of ATP-induced current at recombinant rat P2X3 receptor expressed in Xenopus oocytes. The assay is classed as cell-based, Oocyte.

With `Cc1nc(/N=N/c2cc(S(=O)(=O)O)ccc2S(=O)(=O)O)c(COP(=O)(O)O)c(C=O)c1O` [ISOPPADS], the 50% inhibitory concentration (IC50) (usually the concentration that gives 50% inhibition) in assay [1] came out at 0.0425 µM.
As to `Cc1nc(/N=N/c2ccc(S(=O)(=O)O)cc2S(=O)(=O)O)c(COP(=O)(O)O)c(C=O)c1O`, the half-maximal inhibitory concentration (IC50) in assay [2] was found to be 0.24 µM; in assay [1], 0.0985 µM.
Regarding `Cc1ncc2c(c1O)COP(=O)(O)OC2`, the concentration giving a half-maximal response (EC50) (usually the midpoint of the concentration-response curve) in assay [1] is 5.9 µM.
As for `Cc1nc(/N=N/c2cc(S(=O)(=O)O)ccc2S(=O)(=O)O)c2c(c1O)COP(=O)(O)OC2`, the figures for the IC50 in assay [2] and in assay [1] were 58.3 µM and 10.2 µM, respectively.

These data come from ChEMBL document CHEMBL1131253, “A pyridoxine cyclic phosphate and its 6-azoaryl derivative selectively potentiate and antagonize activation of P2X1 receptors” (J Med Chem, 1998).
